Results reported in publication PMC9135634 (Nature chemical biology, 2022).
Blank lines part the entries; values can stand above or below the compound they belong to.

Legend:
HRAS WT = HRAS WT (Homo sapiens, UniProt P01112); assay: RAS BRET target engagement assay, live HEK-293 cells; format: cell-based
HRAS(G12C) = HRAS(G12C) (Homo sapiens, UniProt P01112, G12C); assay: as above
KRAS(G12C) = KRAS(G12C) (Homo sapiens, UniProt P01116, G12C); assay: as above; format: cell-based; conditions: BRET competition
KRAS WT = KRAS WT (Homo sapiens, UniProt P01116); assay: RAS BRET target engagement assay; format: cell-based; conditions: across all RAS variants studied
NanoLuc-ABL1 = NanoLuc-ABL1 (Homo sapiens, UniProt P00519); assay: NanoBRET TE Intracellular Kinase Assay, K-4; format: cell-based
Sequence of NanoLuc-ABL1 (P00519 whole entry): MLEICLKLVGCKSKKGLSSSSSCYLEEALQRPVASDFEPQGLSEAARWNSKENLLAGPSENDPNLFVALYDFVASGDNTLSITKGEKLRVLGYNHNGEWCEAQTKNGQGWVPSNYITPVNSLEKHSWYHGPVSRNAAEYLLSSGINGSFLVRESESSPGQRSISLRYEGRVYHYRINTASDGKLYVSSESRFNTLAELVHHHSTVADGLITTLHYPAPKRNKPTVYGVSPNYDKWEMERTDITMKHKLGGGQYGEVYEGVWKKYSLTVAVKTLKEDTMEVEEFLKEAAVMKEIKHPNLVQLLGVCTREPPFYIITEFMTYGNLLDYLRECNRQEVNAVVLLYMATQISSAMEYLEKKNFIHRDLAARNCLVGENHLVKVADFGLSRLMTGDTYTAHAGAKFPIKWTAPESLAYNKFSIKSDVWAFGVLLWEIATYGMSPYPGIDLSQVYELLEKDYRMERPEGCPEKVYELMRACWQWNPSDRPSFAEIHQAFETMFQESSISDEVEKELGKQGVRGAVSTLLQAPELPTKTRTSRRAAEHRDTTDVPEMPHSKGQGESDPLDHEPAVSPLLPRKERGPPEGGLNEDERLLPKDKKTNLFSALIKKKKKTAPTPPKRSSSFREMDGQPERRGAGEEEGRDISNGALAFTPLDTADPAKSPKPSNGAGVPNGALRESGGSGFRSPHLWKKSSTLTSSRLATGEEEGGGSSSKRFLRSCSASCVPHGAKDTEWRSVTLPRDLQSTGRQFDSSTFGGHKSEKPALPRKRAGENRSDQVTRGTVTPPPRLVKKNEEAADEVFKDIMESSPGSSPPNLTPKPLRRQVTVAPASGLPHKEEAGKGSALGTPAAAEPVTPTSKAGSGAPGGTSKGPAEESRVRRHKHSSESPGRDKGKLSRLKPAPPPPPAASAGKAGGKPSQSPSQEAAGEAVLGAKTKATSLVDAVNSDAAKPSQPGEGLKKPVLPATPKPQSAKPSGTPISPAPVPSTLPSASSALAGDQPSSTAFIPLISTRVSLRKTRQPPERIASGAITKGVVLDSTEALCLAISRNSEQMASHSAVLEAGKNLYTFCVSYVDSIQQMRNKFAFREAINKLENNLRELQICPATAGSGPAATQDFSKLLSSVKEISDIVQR
KRAS(D54R) : CRAF(RBD) = KRAS(D54R) : CRAF(RBD) (Homo sapiens, UniProt P01116, D54R); assay: NanoBiT-KRAS:CRAF; format: cell-based
NanoBiT-KRAS WT = NanoBiT-KRAS WT (Homo sapiens, UniProt P01116); assay: NanoBiT-RAS luminescence; format: cell-based; conditions: live cells; titration
KRAS(Y96D) = KRAS(Y96D) (Homo sapiens, UniProt P01116, Y96D); assay: RAS BRET target engagement assay, live HEK-293 cells; format: cell-based
HEK-293 cells = format: cell-based; conditions: RAS-independent cell line
A375 cells = assay: Anti-proliferative activity, CellTiter-Glo 2.0; format: cell-based; conditions: BRAF V600E, RAS-independent

- BRET engagement (HRAS WT): No engagement
- BRET engagement (HRAS(G12C)): showed vulnerability
SMILES: C=CC(=O)N1CCN(c2nc(=O)n(-c3c(C)ccnc3C(C)C)c3nc(-c4c(O)cccc4F)c(F)cc23)[C@@H](C)C1 [AMG510, sotorasib]

- hill coefficient (KRAS(G12C)): 1.1
SMILES: C=CC(=O)N1CCN(c2ncnc3c(F)c(-c4c(O)cccc4F)c(Cl)cc23)CC1 [ARS-1620]

- Hill coefficients, mean (KRAS WT): 1.9 ± 0.7
- Hill coefficients, range (KRAS WT): 1.3−3.3
- inhibition of CRAF-RBD interaction with KRAS(D54R) dimers (KRAS(D54R) : CRAF(RBD)): unable to inhibit the interaction
- effect on RAS dimerization NanoBiT signal (NanoBiT-KRAS WT): did not impact
SMILES: Cn1cnc(Cn2ccc3ccc(CNCc4[nH]c5ccccc5c4[C@H]4NC(=O)c5ccc(O)cc54)cc32)c1 [BI-2852]
- effect on BRET or luminescence in irrelevant target engagement assay (NanoLuc-ABL1): had no effect on the BRET or luminescence

- BRET engagement (KRAS(Y96D)): not observed
SMILES: CCC(=O)N1CCN(c2nc(OC[C@@H]3CCCN3C)nc3c2CCN(c2cccc4cccc(Cl)c24)C3)C[C@@H]1CC#N [Compound 10]

- BRET engagement (HRAS WT): No engagement
- BRET engagement (HRAS(G12C)): showed vulnerability
- affinity for HRAS(G12C) weaker than that observed for KRAS(G12C) (HRAS(G12C)): 3 orders of magnitude
SMILES: C=C(F)C(=O)N1CCN(c2nc(OC[C@@H]3CCCN3C)nc3c2CCN(c2cccc4cccc(Cl)c24)C3)C[C@@H]1CC#N [MRTX849]
- anti-proliferative / cytotoxic effect (HEK-293 cells): the same effect
- anti-proliferative effect (A375 cells): the same effect
